Experimental data reported in ChEMBL document CHEMBL4196074, “Metallomics for Alzheimer's disease treatment: Use of new generation of chelators combining metal-cation binding and transport properties” (Eur J Med Chem, 2018).
Calls of active or inactive are those of the source. Unless noted, the rule behind the calls is not given here.

Legend:
[1] = system: SH-SY5Y; test: Inhibition of Cu2+-mediated ROS generation in human SH-SY5Y cells expressing APPswe mutant at 1 uM after 72 hrs by DCF-DA dye-based fluorescence spectroscopic analysis; format: cell-based
[2] = Metal chelating activity assessed as compound-Cu2+ complex formation by UV-vis spectrophotometric analysis
[3] = system: SH-SY5Y; test: Inhibition of Fe3+-mediated ROS generation in human SH-SY5Y cells expressing APPswe mutant at 1 uM after 72 hrs by DCF-DA dye-based fluorescence spectroscopic analysis; format: cell-based
[4] = system: SH-SY5Y; test: Effect on morphological changes in human SH-SY5Y cells expressing APPswe mutant assessed as decrease in adherent cell number at 1 uM after 72 hrs; format: ADME, cell-based
[5] = system: SH-SY5Y; test: Inhibition of Cu2+-mediated amyloid beta (1 to 42 residues) production in human SH-SY5Y cells expressing APPswe mutant at 1 uM after 72 hrs by ELISA based spectrophotometric analysis; format: cell-based
[6] = Metal chelating activity assessed as compound-Fe3+ complex formation by UV-vis spectrophotometric analysis
[7] = Metal chelating activity assessed as compound-Zn2+ complex formation by UV-vis spectrophotometric analysis
[8] = system: SH-SY5Y; test: Effect on morphological changes in human SH-SY5Y cells expressing APPswe mutant assessed as alteration of cell shape at 1 uM after 72 hrs; format: ADME, cell-based
[9] = target: Acetylcholinesterase (Homo sapiens) (UniProt P22303); test: Inhibition of acetylcholinesterase (unknown origin) at 1 uM using acetylthiocholine chloride as substrate measured for 5 to 40 mins
Sequence of Acetylcholinesterase (Homo sapiens) (P22303 whole entry): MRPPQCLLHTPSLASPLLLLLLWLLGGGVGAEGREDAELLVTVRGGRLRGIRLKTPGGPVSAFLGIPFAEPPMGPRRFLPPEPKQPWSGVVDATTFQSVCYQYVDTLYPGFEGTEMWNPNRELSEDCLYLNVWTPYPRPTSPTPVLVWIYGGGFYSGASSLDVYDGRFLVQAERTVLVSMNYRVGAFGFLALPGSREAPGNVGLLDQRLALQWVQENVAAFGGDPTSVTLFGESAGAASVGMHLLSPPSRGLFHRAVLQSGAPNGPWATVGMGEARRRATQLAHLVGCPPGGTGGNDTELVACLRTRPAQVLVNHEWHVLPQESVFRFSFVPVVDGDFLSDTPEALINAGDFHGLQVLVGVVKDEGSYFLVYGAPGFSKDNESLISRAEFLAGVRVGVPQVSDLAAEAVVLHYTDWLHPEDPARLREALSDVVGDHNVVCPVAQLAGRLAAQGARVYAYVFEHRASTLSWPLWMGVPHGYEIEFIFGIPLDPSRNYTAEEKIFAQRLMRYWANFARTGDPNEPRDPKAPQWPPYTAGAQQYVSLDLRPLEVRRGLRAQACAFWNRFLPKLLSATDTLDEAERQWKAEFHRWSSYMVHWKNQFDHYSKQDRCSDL

[10] = system: SH-SY5Y; test: Antiproliferative activity against human SH-SY5Y cells at 1 uM after 24 to 72 hrs by WST1 assay; format: cell-based
[11] = system: SH-SY5Y; test: Neuroprotective activity against amyloid beta (1 to 42 residues) induced cell death in human SH-SY5Y cells expressing APPswe mutant at 1 uM after 48 hrs by WST1 assay; format: functional, cell-based
[12] = system: SH-SY5Y; test: Inhibition of Fe3+-mediated amyloid beta (1 to 42 residues) production in human SH-SY5Y cells expressing APPswe mutant at 1 uM after 72 hrs by ELISA based spectrophotometric analysis; format: cell-based
[13] = Effective permeability of the compound at pH 7.4 at 200 uM after 4 hrs by PAMPA-BBB assay; format: ADME; conditions: read-out: Peff
[14] = system: SH-SY5Y; test: Inhibition of Cu2+-induced toxicity in human SH-SY5Y cells expressing APPswe mutant assessed as increase in cell viability at 1 uM after 72 hrs by WST1 assay; format: cell-based
[15] = system: SH-SY5Y; test: Inhibition of Fe3+-induced caspase-3 activity in human SH-SY5Y cells expressing APPswe mutant at 1 uM after 72 hrs by AcDEVD substrate-based spectrophotometric analysis; format: cell-based
[16] = system: SH-SY5Y; test: Inhibition of Fe3+-induced toxicity in human SH-SY5Y cells expressing APPswe mutant assessed as increase in cell viability at 1 uM after 72 hrs by WST1 assay; format: cell-based
[17] = system: SH-SY5Y; test: Inhibition of Cu2+-induced caspase-3 activity in human SH-SY5Y cells expressing APPswe mutant at 1 uM after 72 hrs by AcDEVD substrate-based spectrophotometric analysis; format: cell-based
[18] = system: SH-SY5Y; test: Inhibition of Zn2+-mediated amyloid beta (1 to 42 residues) production in human SH-SY5Y cells expressing APPswe mutant at 1 uM after 72 hrs by ELISA based spectrophotometric analysis; format: cell-based
[19] = system: SH-SY5Y; test: Inhibition of Zn2+-mediated ROS generation in human SH-SY5Y cells expressing APPswe mutant at 1 uM after 72 hrs by DCF-DA dye-based fluorescence spectroscopic analysis; format: cell-based
[20] = Effective permeability of the compound at 10^-5 mol/L after 5 hrs by UV-based PAMPA; format: ADME; conditions: read-out: Peff
[21] = system: SH-SY5Y; test: Inhibition of Zn2+-induced caspase-3 activity in human SH-SY5Y cells expressing APPswe mutant at 1 uM after 72 hrs by AcDEVD substrate-based spectrophotometric analysis; format: cell-based
[22] = system: SH-SY5Y; test: Inhibition of Zn2+-induced toxicity in human SH-SY5Y cells expressing APPswe mutant assessed as increase in cell viability at 1 uM after 72 hrs by WST1 assay; format: cell-based

| Structure (SMILES) | inhibition [1] | Activity [2] | inhibition [3] | inhibition [5] | Activity [6] | Activity [7] | inhibition [9] | Activity [10] | Activity [11] | inhibition [12] | inhibition [14] | inhibition [15] | inhibition [16] | inhibition [17] | further results |
| --- | --- | --- | --- | --- | --- | --- | --- | --- | --- | --- | --- | --- | --- | --- | --- |
| COc1ccc(Nc2c(NN=C(c3ccccn3)c3ccccn3)c(=O)c2=O)cc1 | Active | Active | Active | Active | Active | inactive | inactive | Non-Toxic | inactive | Active |  |  |  |  | Activity [4]: Toxic; Activity [8]: Toxic |
| CC(C)NCC(O)COc1cccc2ccccc12 (stereo unspecified) [PROPRANOLOL] |  |  |  |  |  |  |  |  |  |  |  |  |  |  | Papp at 4 h, 200 µM [13]: 10.3 ×10⁻⁶ cm/s |
| C[C@H](CCC(=O)N/N=C/c1ccc2ccccc2n1)[C@H]1CC[C@H]2[C@@H]3[C@H](O)C[C@@H]4C[C@H](O)CC[C@]4(C)[C@H]3C[C@H](O)[C@]12C | Active | Active | Active | inactive | Active | inactive | inactive | Non-Toxic | Active | inactive | Active | Active | Active | Active |  |
| C[C@H](CCC(=O)NN=C(c1ccccn1)c1ccccn1)[C@H]1CC[C@H]2[C@@H]3[C@H](O)C[C@@H]4C[C@H](O)CC[C@]4(C)[C@H]3C[C@H](O)[C@]12C |  | Active |  | Active | Active | inactive | inactive | Non-Toxic | Active | Active | Active | Active | Active | Active |  |
| CCN1/C(=C/c2c(NN=C(c3ccccn3)c3ccccn3)c(=O)c2=O)Sc2ccccc21 | Active | Active | Active | Active | Active | Active | inactive | Non-Toxic | inactive | Active |  |  |  |  | Activity [4]: Toxic; Activity [8]: Toxic; inhibition [18]: Active; inhibition [19]: Active |
| Cc1ncc(CO)c(/C=N/NC(=O)CC[C@@H](C)[C@H]2CC[C@H]3[C@@H]4[C@H](O)C[C@@H]5C[C@H](O)CC[C@]5(C)[C@H]4C[C@H](O)[C@]23C)c1O | Active | Active | Active | inactive | Active | Active | inactive | Non-Toxic | Active | inactive | Active | Active | Active | Active | Papp at 5 h, 10 µM [20]: 7.5 ×10⁻⁶ cm/s; inhibition [21]: Active; inhibition [22]: Active; inhibition [18]: inactive; inhibition [19]: Active |
| C[C@H](CCC(=O)N/N=C/c1ccc(C(C)(C)C)cc1O)[C@H]1CC[C@H]2[C@@H]3[C@H](O)C[C@@H]4C[C@H](O)CC[C@]4(C)[C@H]3C[C@H](O)[C@]12C | Active | Active | Active | inactive | Active | inactive | inactive | Non-Toxic | Active | inactive | Active | Active | Active | Active |  |
